In patent US3994901A, “5-[1-Hydroxy-2-(s ubstituted-amino)]alkyl-8-hydroxy-3,4-dihydrocarbostyril derivatives” (Otsuka Pharmaceutical Company Limited, priority 1974, dated 1976):
Structures can show the parent of a compound that is named as a salt.

Legend:
β-adreno-receptor = assay: Inhibition of histamine-induced bronchoconstriction (bronchial resistance, Konzett-Rossler method) in anesthetized dogs; β-adreno-receptor stimulating activity; format: in vivo, dog (male hybrid adult dogs); conditions: femoral vein, 1 minute before histamine 10 mg/kg
Description: The stimulating activity of the compounds of this invention on β-adreno-receptor was determined as follows:
Male hybrid adult dogs, weighing 10 to 15 kg were anesthesized with 30 mg/kg of body weight of sodium pentobarbital administered intravenously. Each of the anesthesized dogs were secured on its back and a cannula was inserted into the trachea. Artificial respiration was conducted using a device according to the Konzett-Rossler method (Konzett H. & Rossler R., "Versuchsanordnug zu Untersuchungen an der Bronchial Moskolatur", Arch. Exp. Path., Pharmack, 195, 71 - 74, 27 - 40 (1940)). The volume of the overflowing air at the time of inhalation was measured through a pneumotachometer to determine the bronchial resistance and the values obtained were recorded on a polygraph.
In the above experiment, histamine was employed as a bronchoconstrictor at a dosage level of 10 mg/kg of body weight, and an aqueous solution containing each of the test compounds and controls shown in Table 1 below was then administered to each of the anesthesized dogs through the femoral vein at various dosage levels shown in Table 1 below 1 minute before the administration of the histamine. Sodium pentobarbital was infused during the experiment at a dosage level of 4 mg/kg of body weight/hr using an automatic injector in order to inhibit spontaneous respiration and to keep the anesthetic condition constant over the test period.

in vivo = conditions: rat, male rats (dd strain), fasted 12 hours

SMILES	Bronchial Resistance (%) (β-adreno-receptor; dose 0.01 ug/Kg)	Bronchial Resistance (%) (β-adreno-receptor; dose 0.03 ug/Kg)	Bronchial Resistance (%) (β-adreno-receptor; dose 0.1 ug/Kg)	Bronchial Resistance (%) (β-adreno-receptor; dose 0.3 ug/Kg)	Bronchial Resistance (%) (β-adreno-receptor; dose 1.0 ug/Kg)	Bronchial Resistance (%) (β-adreno-receptor; dose 3.0 ug/Kg)	LD50 (in vivo; iv, I.v.)	LD50 (in vivo; po)	Bronchial Resistance (%) (β-adreno-receptor; dose 10 ug/Kg)	Bronchial Resistance (%) (β-adreno-receptor; dose 30 ug/Kg)	Bronchial Resistance (%) (β-adreno-receptor; dose 100 ug/Kg)
CC(C)(C)NCC(O)c1ccc(O)c(CO)c1 (stereo not drawn) [Salbutamol]	0%	0%	16.6%	33.3%	66.6%	100%	–	–	–	–	–
CCC(NC(C)C)C(O)c1ccc(O)c2c1CCC(=O)N2 (stereo not drawn) [5-(1-Hydroxy-2-isopropylamino)butyl-8-hydroxy-3,4-dihydrocarbostyril]	–	–	–	–	–	–	81.5 mg/kg	830 mg/kg	–	–	–
CC(C)NCC(O)c1ccc(O)c2ncccc12 (stereo not drawn) [Quinterenol]	0%	0%	0%	0%	0%	0%	–	–	0%	7.6%	15.3%
CC(C)NCC(O)c1ccc(O)c(O)c1 (stereo not drawn) [Isoproterenol]	–	16.6%	–	–	100%	–	–	–	–	–	–
CC(C)NCC(O)c1cc(O)cc(O)c1 (stereo not drawn) [Metaproterenol Sulfate (Arotec)]	0%	0%	2.7%	11.1%	27.5%	50.0%	–	–	88.3%	100%	–
